Like-named read-outs stand apart in the source and are kept apart here.
Legend:
MCT8 [1] = target: T1, MCT8 (Rattus norvegicus, UniProt Q8K1P8, G227D/I169T/S199P/T171I); test: Inhibition of uptake of labeled T4 and T3 in MCT8 cRNA-injected oocytes by putative competitors; format: cell-based; parameters: the stop codon of MCT8 was removed by performing PCR using the same sense primer as above; expressed in transfected cells; host or cells: Xenopus laevis oocytes injected with cRNA transcribed from pGEM-HeJuel; settings: for Inhibition of labeled T4 and T3 uptake by MCT8 (in words): unlabeled competitor, taurocholate and probenecid data not shown
T1 sequence (Q8K1P8 whole entry I169T/T171I/S199P/G227D): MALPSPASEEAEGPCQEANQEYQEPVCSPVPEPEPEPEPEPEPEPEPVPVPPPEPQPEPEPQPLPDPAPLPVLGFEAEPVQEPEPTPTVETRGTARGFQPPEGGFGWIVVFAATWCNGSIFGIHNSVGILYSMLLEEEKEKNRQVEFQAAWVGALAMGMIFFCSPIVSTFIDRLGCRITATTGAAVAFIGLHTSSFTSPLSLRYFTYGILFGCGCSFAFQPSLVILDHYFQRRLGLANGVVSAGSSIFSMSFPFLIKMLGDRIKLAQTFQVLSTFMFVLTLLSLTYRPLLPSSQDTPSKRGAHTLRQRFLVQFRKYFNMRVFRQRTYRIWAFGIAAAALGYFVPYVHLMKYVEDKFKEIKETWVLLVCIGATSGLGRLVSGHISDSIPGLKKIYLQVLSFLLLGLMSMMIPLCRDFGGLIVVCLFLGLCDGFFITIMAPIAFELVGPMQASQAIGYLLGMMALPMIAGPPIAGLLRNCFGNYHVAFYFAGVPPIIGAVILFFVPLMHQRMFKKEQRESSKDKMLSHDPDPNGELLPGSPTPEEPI
Experimental: (§1) Oocytes were isolated and allowed to recover overnight at 18 C in modified Barth's solution containing 20 IU/ml penicillin and 20 gg/ml streptomycin as described before (23). […] Uninjected or water injected oocytes were used as controls.
(§2) Transport measurements in oocytes—Oocytes were washed and preincubated at 18 C in standard uptake solution (100 mM NaCl, 2 mM KCl, 1 mM CaCl2, 1 mM MgCl2, 10 mM HEPES, and 10 mM Tris, pH 7.5). […] The possible Na^+ dependence of transport was tested by preincubation and incubation in Na^+-free uptake solution in which NaCl was replaced by choline chloride. The influence of the temperature on the uptake rate was tested by the incubation of oocytes with uptake solutions at different temperatures between 4 and 37 C. […] The incubation was stopped by aspiration of the medium, and oocytes were washed 4 times at 4 C with standard uptake solution containing 0.1% BSA.

MCT8 [2] = target: T2, MCT8 (Rattus norvegicus, UniProt Q8K1P8); test: as above; format: cell-based; settings: labeled T3 10 nm, MCT8 cRNA-injected oocytes
T2 construct: the stop codon of MCT8 was removed by performing PCR using the same sense primer as above; expressed in transfected cells; host or cells: Xenopus laevis oocytes injected with cRNA transcribed from pGEM-HeJuel
T2 sequence (Q8K1P8 whole entry I169T/T171I/S199P/G227D): as above
Experimental: as §1, §2

rat oatp1 = target: T3, rat oatp1 (Rattus norvegicus, UniProt P46720); settings: literature (10); read-out: Apparent Km values for rat oatp1; cited from earlier work
T3 sequence (P46720 1-670): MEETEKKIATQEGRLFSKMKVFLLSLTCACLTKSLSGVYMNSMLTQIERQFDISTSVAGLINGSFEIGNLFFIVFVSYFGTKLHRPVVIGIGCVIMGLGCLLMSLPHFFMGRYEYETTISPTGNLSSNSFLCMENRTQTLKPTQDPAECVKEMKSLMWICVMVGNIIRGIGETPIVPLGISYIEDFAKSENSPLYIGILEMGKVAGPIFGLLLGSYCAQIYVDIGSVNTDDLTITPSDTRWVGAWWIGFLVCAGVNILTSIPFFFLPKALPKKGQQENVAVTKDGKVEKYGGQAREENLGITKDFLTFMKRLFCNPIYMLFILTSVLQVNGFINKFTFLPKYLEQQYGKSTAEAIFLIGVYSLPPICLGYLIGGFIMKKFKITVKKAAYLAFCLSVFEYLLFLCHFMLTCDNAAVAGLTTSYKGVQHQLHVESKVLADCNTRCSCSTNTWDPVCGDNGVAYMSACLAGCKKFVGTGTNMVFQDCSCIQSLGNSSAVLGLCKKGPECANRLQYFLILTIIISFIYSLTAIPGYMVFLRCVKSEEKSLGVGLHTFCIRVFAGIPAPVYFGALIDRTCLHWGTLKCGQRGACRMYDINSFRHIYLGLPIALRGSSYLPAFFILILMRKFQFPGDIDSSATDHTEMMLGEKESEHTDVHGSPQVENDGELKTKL

MCT8 [3] = target: T1, MCT8; test: Transport (uptake) of radioactive ligands by MCT8 expressed in X. laevis oocytes; format: cell-based; parameters: the stop codon of MCT8 was removed by performing PCR using the same sense primer as above; expressed in transfected cells; host or cells: Xenopus laevis oocytes injected with cRNA transcribed from pGEM-HeJuel; settings: 10 nM iodothyronines or amino acids; MCT8 cRNA-injected vs uninjected oocytes
Experimental: Xenopus oocytes were isolated and injected with 4.6 ng rat MCTS cRNA. After 3 days, groups of 10 injected or uninjected oocytes were incubated for 60 mm at 25 C with 10 nM radioactive iodothyronines in 0.1 ml medium. Uptake of iodothyronines was determined as previously described (18).
as §1
Transport measurements in oocytes—Oocytes were washed and preincubated at 18 C in standard uptake solution (100 mM NaCl, 2 mM KCl, 1 mM CaCl2, 1 mM MgCl2, 10 mM HEPES, and 10 mM Tris, pH 7.5). Usually, transport was tested by incubation of groups of 5-10 oocytes for 2-60 mm at 25 C with 10 nM [1251]iodothyronines or 10 μM [3H]amino acids in 0.1 ml standard uptake solution. The possible Na^+ dependence of transport was tested by preincubation and incubation in Na^+-free uptake solution in which NaCl was replaced by choline chloride. The influence of the temperature on the uptake rate was tested by the incubation of oocytes with uptake solutions at different temperatures between 4 and 37 C. […] The incubation was stopped by aspiration of the medium, and oocytes were washed 4 times at 4 C with standard uptake solution containing 0.1% BSA.

rat MCT1 = target: T4, rat MCT1 (Rattus norvegicus, UniProt P53987); settings: data not shown
T4 sequence (P53987 1-494): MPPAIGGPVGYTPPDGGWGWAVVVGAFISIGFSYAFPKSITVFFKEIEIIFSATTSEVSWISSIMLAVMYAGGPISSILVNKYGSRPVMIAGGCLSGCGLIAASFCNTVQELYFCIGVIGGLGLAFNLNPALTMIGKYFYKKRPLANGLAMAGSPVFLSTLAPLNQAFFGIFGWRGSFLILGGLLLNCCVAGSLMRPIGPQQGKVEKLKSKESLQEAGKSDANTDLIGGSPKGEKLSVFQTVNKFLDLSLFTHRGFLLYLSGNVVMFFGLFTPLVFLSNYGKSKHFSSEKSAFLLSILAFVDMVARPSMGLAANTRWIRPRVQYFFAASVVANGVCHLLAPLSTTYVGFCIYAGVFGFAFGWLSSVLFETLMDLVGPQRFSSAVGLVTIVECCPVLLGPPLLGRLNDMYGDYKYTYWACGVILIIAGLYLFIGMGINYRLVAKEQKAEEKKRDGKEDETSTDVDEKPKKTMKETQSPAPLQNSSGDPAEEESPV

MCT8 [4] = target: T1, MCT8; test: Transport kinetics of MCT8-mediated iodothyronine uptake in oocytes (Michaelis-Menten); parameters: dose or concentration left out as unconfirmed; settings: net transport
Experimental: Apparent Km values were calculated by fitting the plot of uptake rate (v) versus ligand concentration (5) to the Michaelis Menten equation: v=Vmax/(1+Km/S), wherein Vmax is the maximum uptake rate, and Km the Michaelis constant. Calculations were performed using the Slide Write Plus program version 5.01 (Advanced Graphics Software).

MCT8 [5] = target: T1, MCT8; test: Uptake and metabolism (sulfation) of rT3 in MCT8 cRNA-injected oocytes; format: cell-based; parameters: the stop codon of MCT8 was removed by performing PCR using the same sense primer as above; expressed in transfected cells; host or cells: Xenopus laevis oocytes injected with cRNA transcribed from pGEM-HeJuel; settings: 10 nM rT3, 2-60 min, 25 C
Experimental: Analysis of rT3 metabolism in oocytes—Groups of 10 oocytes were incubated for 2-60 mm at 25 C with 10 nM ['25IIrTa. After incubation, medium was collected, and 2 groups of 5 oocytes were counted separately and homogenized in 0.1 ml 0.1 M NaOH as described before (25). Lysates were cleared by centrifugation. Lysates (in duplicate) and incubation media were acidified with 0.1 M HCl and analyzed by Sephadex LH-20 chromatography (21). The different products were successively eluted with 0.1 M HCl (iodide), water (conjugates), and 1% NH4OH in ethanol (iodothyronines).
Metabolism of rT3—Previous studies have shown that X. laevis oocytes actively metabolize rT3 by sulfation. Since sulfotransferases are located intracellularly, we have used this property to investigate rT3 internalization by oocytes. […] At several time points, uninjected and MCT8 cRNA-injected oocytes are homogenized, and the homogenates and medium samples are analyzed for rT3 and rT3 sulfate (rT3S) content. It is shown that already after 2 mm of incubation, rT3S is formed intracellularly in the MCT8 cRNA-injected oocytes. After 10 mm of incubation, release of rT3S into the medium is observed. The production rate of rT3S is much higher in MCT8 cRNA-injected oocytes than in uninjected cells.

[6] = labeled T4 10 nm, inhibitor 100 μM, MCT8 cRNA-injected oocytes
[7] = labeled T4 10 nm, inhibitor 10 μM, MCT8 cRNA-injected oocytes

SMILES	Inhibition of labeled T4 and T3 uptake by MCT8 (in words) (MCT8 [1])	Substrate specificity: transport by MCT8 (in words) (MCT8 [3])	further results
O=C1OC(c2ccc(O)c(S(=O)(=O)O)c2)(c2ccc(O)c(S(=O)(=O)O)c2)c2c(Br)c(Br)c(Br)c(Br)c21 [BSP, bromosulfophthalein]	potent inhibitor	–	% inhibition ± SEM of uptake of T4 (MCT8 [1]; [6]): 94 ± 2%; % inhibition ± SEM of uptake of T3 (MCT8 [2]; inhibitor 100 μM): 81 ± 1%; Km (rat oatp1): 1500 nM
O=C(CBr)N[C@@H](Cc1cc(I)c(Oc2ccc(O)c(I)c2)c(I)c1)C(=O)O [BrAcT3, N-bromoacetyl-3,3′,5-triiodothyronine]	potently inhibited	–	inhibition at 10 µM (MCT8 [1]; labeled T4 10 nm, inhibitor 10 μM, MCT8 cRNA-injected oocytes, read-out: % inhibition ± SEM of uptake of T4): 90 ± 3%; inhibition at 10 µM (MCT8 [1]; read-out: % inhibition ± SEM of uptake of T3): 67 ± 1%
N[C@H](Cc1cc(I)c(Oc2ccc(O)c(I)c2)c(I)c1)C(=O)O [D-T3]	potently inhibited	–	% inhibition ± SEM of uptake of T4 (MCT8 [1]; [7]): 72 ± 3%; % inhibition ± SEM of uptake of T3 (MCT8 [2]; inhibitor 10 μM): 24 ± 5%
N[C@H](Cc1cc(I)c(Oc2cc(I)c(O)c(I)c2)c(I)c1)C(=O)O [D-T4]	potently inhibited	–	% inhibition ± SEM of uptake of T4 (MCT8 [1]; [7]): 76 ± 7%; % inhibition ± SEM of uptake of T3 (MCT8 [2]; inhibitor 10 μM): 21 ± 5%
CC(C)C[C@H](N)C(=O)O [Leu]	–	not transported	–
N[C@@H](Cc1ccccc1)C(=O)O [Phe]	–	not transported	–
N[C@@H](Cc1ccc(Oc2ccc(O)c(I)c2)c(I)c1)C(=O)O [T2, 3,3′-diiodothyronine]	–	rapid uptake	–
NS(=O)(=O)O [T4NS]	–	not transported	–
N[C@@H](Cc1cc(I)c(Oc2cc(I)c(OS(=O)(=O)O)c(I)c2)c(I)c1)C(=O)O [T4S]	–	not transported	–
N[C@@H](Cc1c[nH]c2ccccc12)C(=O)O [Trp]	hardly affected	not transported	% inhibition ± SEM of uptake of T4 (MCT8 [1]; [6]): 22 ± 6%; % inhibition ± SEM of uptake of T3 (MCT8 [2]; inhibitor 100 μM): 0 ± 7%
N[C@@H](Cc1ccc(O)cc1)C(=O)O [Tyr]	hardly affected	not transported	% inhibition ± SEM of uptake of T4 (MCT8 [1]; [6]): 37 ± 6%; % inhibition ± SEM of uptake of T3 (MCT8 [2]; inhibitor 100 μM): 0 ± 9%
CC(O)C(=O)O (centres unmarked) [lactate]	–	unable to demonstrate any transport	Transport in rat MCT1 cRNA-injected oocytes compared to control oocytes (in words) (rat MCT1): greatly stimulated
CCCN(CCC)S(=O)(=O)c1ccc(C(=O)O)cc1 [probenecid]	weak effects	–	–
N[C@@H](Cc1ccc(Oc2cc(I)c(O)c(I)c2)c(I)c1)C(=O)O [rT3, 3,3′,5′-triiodothyronine]	–	rapid uptake	Saturability of transport by MCT8 (MCT8 [4]): saturable; Production rate of rT3S in MCT8 cRNA-injected oocytes versus uninjected cells (MCT8 [5]): much higher

Source: patent US20050159352A1, “Use of monocarboxylate transporter protein for thyroid hormone transport” (priority 2002, published 2005)
